We go through eight compounds from patent US20260041095A1, “A PRESERVATION METHOD” (AnalytiCon Discovery - Zweigniederlassung der BRAIN Biotech …, priority 2022, published 2026).

Values after ≈ are worked out from the molar mass of the structure shown.

Holding throughout (assay type): cell-based
The test system of test [1] is Asaia siamensis SUN03. Nature of the test: Antimicrobial activity (MIC), Asaia siamensis SUN03. The note with it: potato dextrose broth pH 3.8, visual evaluation; for MIC: read-out: Minimal Inhibitory Concentration (MIC).
Test [2] has as its system Brettanomyces sp SUN08. Kind of test: Antimicrobial activity (MIC), Brettanomyces sp SUN08. The note with it: potato dextrose broth pH 3.8, visual evaluation; for MIC: read-out: Minimal Inhibitory Concentration (MIC).
Test [3] concerns Byssochlamys nivea SUN10. Kind of test: Antimicrobial activity (MIC), Byssochlamys nivea SUN10. The note with it: potato dextrose broth pH 3.8, visual evaluation; for MIC: Paecilomyces niveus, read-out: Minimal Inhibitory Concentration (MIC).
Test [4] has as its system Candida parapsilosis SUN05. Kind of test: Antimicrobial activity (MIC), Candida parapsilosis SUN05. The note with it: potato dextrose broth pH 3.8, visual evaluation; for MIC: Lodderomyces parapsilosis, read-out: Minimal Inhibitory Concentration (MIC).
Test [5] deals with Neosartorya fischeri SUN09. Kind of test: Antimicrobial activity (MIC), Neosartorya fischeri SUN09. The note with it: potato dextrose broth pH 3.8, visual evaluation; for MIC: Aspergillus fischeri, read-out: Minimal Inhibitory Concentration (MIC).
The test system of test [6] is Penicillium paneum SUN04. Nature of the test: Antimicrobial activity (MIC), Penicillium paneum SUN04. The note with it: potato dextrose broth pH 3.8, visual evaluation; for MIC: read-out: Minimal Inhibitory Concentration (MIC).
Test [7] concerns Saccharomyces cerevisiae SUN01. Nature of the test: Antimicrobial activity (MIC), Saccharomyces cerevisiae SUN01. The note with it: potato dextrose broth pH 3.8, visual evaluation; for MIC: read-out: Minimal Inhibitory Concentration (MIC).
For test [8], the system named is Saccharomyces cerevisiae SUN06. Nature of the test: Antimicrobial activity (MIC), Saccharomyces cerevisiae SUN06. The note with it: potato dextrose broth pH 3.8, visual evaluation; for MIC: read-out: Minimal Inhibitory Concentration (MIC).
For test [9], the system named is Zygosaccharomyces bailli SUN02. Kind of test: Antimicrobial activity (MIC), Zygosaccharomyces bailli SUN02. The note with it: potato dextrose broth pH 3.8, visual evaluation; for MIC: read-out: Minimal Inhibitory Concentration (MIC).
The subject of test [10] is Zygosaccharomyces bailli SUN07. Nature of the test: Antimicrobial activity (MIC), Zygosaccharomyces bailli SUN07. The note with it: potato dextrose broth pH 3.8, visual evaluation; for MIC: read-out: Minimal Inhibitory Concentration (MIC).
In test [11] the test system is Alicyclobacillus acidoterrestris DSM 2498. Nature of the test: Antimicrobial activity (MIC), Alicyclobacillus acidoterrestris DSM 2498. The note with it: DSM2498, potato dextrose broth pH 3.8, visual evaluation, read-out: Minimal Inhibitory Concentration (MIC).
Test [12] concerns Bacillus subtilis ATCC 6633. Nature of the test: Antimicrobial activity (MIC), Bacillus subtilis ATCC 6633. The note with it: ATCC6633, potato dextrose broth pH 3.8, visual evaluation, read-out: Minimal Inhibitory Concentration (MIC).
For test [13], the system named is Leuconostoc lactis DSM 20202. Nature of the test: Antimicrobial activity (MIC), Leuconostoc lactis DSM 20202. The note with it: DSM20202, potato dextrose broth pH 3.8, visual evaluation, read-out: Minimal Inhibitory Concentration (MIC).

Regarding `CCCCCC(O)CC(=O)O[C@@H]1[C@@H](O)[C@H](O[C@H]2[C@H](O)[C@@H](O)[C@H](OCC(O)CCCCCCCCCCCCC(O)C(=O)O)O[C@@H]2COC(C)=O)O[C@H](CO)[C@H]1O` (stereo partly drawn) [NP-018218], the “Minimal Inhibitory Concentration (MIC)” value in test [1], in [2], in test [3], in test [4], in [5] and in test [6] was “inact” each time. Moreover, the “Minimal Inhibitory Concentration (MIC)” value in test [7], in [9] and in test [10] was “inact” in each case. Besides, in test [8], the MIC came out at 500 µg/mL (≈ 615 µM).

Consider `O=C(O)OC[C@H]1O[C@@H](OCC(O)CCCCCCCCCCCCC(O)C(=O)O)[C@H](O)[C@@H](O)[C@@H]1O[C@@H]1O[C@H](CO)[C@@H](O)[C@H](O)[C@H]1O` (stereo partly drawn) [NP-018243], for which the “Minimal Inhibitory Concentration (MIC)” value in test [1] is “inact”. Further, the MIC in test [2] was 250 µg/mL (≈ 372 µM); in test [3], 250 µg/mL (≈ 372 µM); in test [4], 500 µg/mL (≈ 743 µM); in [5] it was not above 125 µg/mL; in test [6], not above 125 µg/mL; in test [7], 250 µg/mL (≈ 372 µM). Also, the MIC in [8], in [9] and in test [10] was 250 µg/mL (≈ 372 µM) throughout.

For the compound `O=C(O)OC[C@H]1O[C@@H](OCC(O)CCCCCCCCCCCCC(O)C(=O)O)[C@H](O)[C@@H](O)[C@@H]1O[C@@H]1O[C@H](CO)[C@@H](O)[C@H](OC(=O)CC(O)CCO)[C@H]1O` (stereo partly drawn) [NP-018249], the “Minimal Inhibitory Concentration (MIC)” value in test [1], in test [2], in test [3], in test [4], in test [5] and in test [6] was “inact” each time. For the same compound, in test [8], the “Minimal Inhibitory Concentration (MIC)” value is “inact”. Further, the MIC in test [7], in test [9] and in test [10] was 500 µg/mL (≈ 634 µM) each time.

Turning to `O=C(O)CC(O)CCCCCCCCCCCC(O)CO[C@@H]1O[C@H](COC(=O)O)[C@@H](O[C@@H]2O[C@H](CO)[C@@H](O)[C@H](O)[C@H]2O)[C@H](O)[C@H]1O` (stereo partly drawn) [NP-018428], the “Minimal Inhibitory Concentration (MIC)” value in test [1], in [2], in [3], in test [4], in [6] and in [7] was “inact” each time. Further, the “Minimal Inhibitory Concentration (MIC)” value in test [8], in test [9] and in test [10] was “inact” in each case. The MIC in test [5] is 500 µg/mL (≈ 743 µM).

As for `CCCC(O)CC(=O)OC[C@H]1O[C@@H](O[C@H]2[C@H](O)[C@@H](O)[C@H](OCC(O)CCCCCCCCCCCCC(O)C(=O)O)O[C@@H]2COC(C)=O)[C@H](O)[C@@H](O)[C@@H]1O` (stereo partly drawn) [NP-018459], the “Minimal Inhibitory Concentration (MIC)” value in test [1], in test [2], in [3], in [4], in test [7] and in test [8] was “inact” each time. For the same compound, in [9], the “Minimal Inhibitory Concentration (MIC)” value is on record as “inact”. Also, the MIC in test [5], in test [6] and in test [10] was 500 µg/mL (≈ 637 µM) each time.

For the compound `CCCCCC(O)CC(=O)O[C@H]1[C@H](O[C@H]2[C@H](O)[C@@H](O)[C@H](OCC(O)CCCCCCCCCCCCCC(=O)O)O[C@@H]2COC(C)=O)O[C@H](CO)[C@@H](O)[C@@H]1O` (stereo partly drawn) [NP-018752], the “Minimal Inhibitory Concentration (MIC)” value in [1], in test [2], in test [4], in test [5], in test [6] and in [7] was “inact” in each case. The MIC in test [11] is 4 µg/mL (≈ 5.02 µM); in test [3] it was 500 µg/mL (≈ 627 µM); in test [8], 500 µg/mL (≈ 627 µM); in [9], 500 µg/mL (≈ 627 µM); in test [10], 500 µg/mL (≈ 627 µM).

Consider `CCCCCCCC(=O)O[C@H]1[C@H](O[C@H]2[C@H](O)[C@@H](O)[C@H](OCC(O)CCCCCCCCCCCCC(O)C(=O)O)O[C@@H]2COC(C)=O)O[C@H](CO)[C@@H](O)[C@@H]1O` (stereo partly drawn) [NP-018753], for which the MIC in test [1] was more than 500 µg/mL; in test [2], 500 µg/mL (≈ 627 µM); in [3], not above 31.2 µg/mL; in [4] it was not above 31.2 µg/mL; in [5] it was not above 31.2 µg/mL; in test [6] it was 500 µg/mL (≈ 627 µM). Besides, the MIC in test [7], in test [8], in test [9] and in test [10] was not above 31.2 µg/mL in each case.

As for `O=C(O)OC[C@H]1O[C@@H](OCC(O)CCCCCCCCCCC/C=C(\O)C(=O)O)[C@H](O)[C@@H](O)[C@@H]1O[C@@H]1O[C@H](CO)[C@@H](O)[C@H](O)[C@H]1OC(=O)CC(O)CCO` (stereo partly drawn) [NP-018756], the MIC in test [1] was more than 500 µg/mL; in test [11], 16 µg/mL (≈ 20.3 µM); in test [12], 600 µg/mL (≈ 763 µM); in test [2], 250 µg/mL (≈ 318 µM); in test [3] it was not above 125 µg/mL; in [4], 500 µg/mL (≈ 635 µM). Besides, the MIC in [13] was 600 µg/mL (≈ 763 µM); in [5], not above 125 µg/mL; in test [6], 250 µg/mL (≈ 318 µM); in test [7], 250 µg/mL (≈ 318 µM); in test [8] it was 250 µg/mL (≈ 318 µM); in test [9], 250 µg/mL (≈ 318 µM). Besides, the MIC in test [10] is 250 µg/mL (≈ 318 µM).
